For one series, the system named is Erysiphe cichoracaerum. Description: Cucumber Powdery Mildew (ERYSCI), whole-plant fungicide test. Type of series: in vivo. The note with it: 200 ppm on foliage, one-day protectant test; for pest or weed control at 200 ppm: Erysiphe, foliar, 24 h, read-out: ERYSCI percent control of disease.
The test system of series [1] is Erysiphe graminis f. sp. tritici. The experiment in a line: Powdery Mildew of Wheat (ERYSGT), whole-plant fungicide test. Type of series: in vivo. As to conditions: Blumeria graminis, foliar, 24 h, 200 ppm on foliage, one-day protectant test, read-out: ERYSGT percent control of disease.
A further series has as its system Phytophthora infestans. Description: whole plant or invertebrate. The note with it: Phytophthora infestans, in Solanum lycopersicum, foliar, 24 h, read-out: PHYTIN percent control of disease, 200 ppm on foliage, tomato, one-day protectant test. Type of series: in vivo.
The subject of a further series is Leptosphaeria nodorum. The experiment in a line: Glume Blotch of Wheat (LEPTNO), whole-plant fungicide test. Type of series: in vivo. The note with it: Parastagonospora nodorum, foliar, 24 h, 200 ppm on foliage, one-day protectant test, read-out: LEPTNO percent control of disease.
The next series concerns Septoria tritici. Description: Speckled Leaf Blotch of Wheat (SEPTTR), whole-plant fungicide test. Type of series: in vivo. The note with it: Zymoseptoria tritici, foliar, 24 h, 200 ppm on foliage, one-day protectant test, read-out: SEPTTR percent control of disease.
In another series the test system is Cochliobolus sativus. The experiment in a line: Spot Blotch of Wheat (COCHSA), whole-plant fungicide test. Type of series: in vivo. The note with it: Bipolaris sorokiniana, foliar, 24 h, 200 ppm on foliage, one-day protectant test, read-out: COCHSA percent control of disease. The essentials: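 Wheat seedlings (3-8 per pot) sprayed to wet with compound at 200 ppm (sometimes 100, 75 or 8.3 ppm) in 10% acetone/Triton X100 water, ~1500 L/ha. Inoculated with C. sativus spores next day (1DP) or two days before spraying (2DC), held humid 1-2 days, then greenhouse; disease severity converted to percent control versus untreated inoculated plants.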

For the next series, the system named is Magnaporthe grisea. The experiment in a line: whole plant or invertebrate. Type of series: in vivo. As to conditions: for pest or weed control at 200 ppm: Pyricularia oryzae, in Oryza sativa, foliar, 24 h, read-out: PYRIOR percent control of disease, 200 ppm on foliage, rice, one-day protectant test.
Series [2] concerns Puccinia recondita tritici. The experiment in a line: Leaf Rust of Wheat (PUCCRT), whole-plant fungicide test. Type of series: in vivo. As to conditions: 200 ppm on foliage, one-day protectant test; for pest or weed control at 200 ppm: Puccinia recondita, foliar, 24 h, read-out: PUCCRT percent control of disease.
A further series concerns Colletotricum lagenarium. Description: Cucumber Anthracnose (COLLLA), whole-plant fungicide test. Type of series: in vivo. The note with it: Cucumis sativus, foliar, 24 h, 200 ppm on foliage, one-day protectant test, read-out: COLLLA percent control of disease.

With `OCC(Nc1ncnc2scc(Cl)c12)c1ccccc1` (centres unmarked) [Compound 30], the melting point was found to be 120 °C. Besides, in the series on Erysiphe cichoracaerum, the “ERYSCI percent control of disease” value is on record as “*** (*** is 80-100 percent control of disease)”. In series [1], the pest or weed control at 200 ppm is 0 to 49%. Further, the pest or weed control at 200 ppm with Phytophthora infestans was 0 to 49%. Also, the pest or weed control at 200 ppm in the series on Leptosphaeria nodorum lay in the range of 0 to 49%. Further, in the series on Septoria tritici, the pest or weed control at 200 ppm is 0 to 49%. In addition, the pest or weed control at 200 ppm in the series on Cochliobolus sativus is 0 to 49%. In addition, the “PYRIOR percent control of disease” value in the series on Magnaporthe grisea (200 ppm on foliage, rice, one-day protectant test) is reported as “*** (*** is 80-100 percent control of disease)”. The “PUCCRT percent control of disease” value in series [2] is “*** (*** is 80-100 percent control of disease)”. In addition, the pest or weed control at 200 ppm with Colletotricum lagenarium lay within 0 to 49%.
In turn, `OCC(Cc1ccccc1)Nc1ncnc2scc(Cl)c12` (centres unmarked) [Compound 31] returned a melting point of 104 to 105 °C. In the series with Erysiphe cichoracaerum, the pest or weed control at 200 ppm was in the range of 80 to 100%. The pest or weed control at 200 ppm in [1] was 0 to 49%. In addition, the pest or weed control at 200 ppm with Phytophthora infestans was 80 to 100%. Besides, the pest or weed control at 200 ppm with Leptosphaeria nodorum is 0 to 49%. Besides, the pest or weed control at 200 ppm in the series on Septoria tritici was 0 to 49%. Also, in the series with Cochliobolus sativus, the pest or weed control at 200 ppm was 0 to 49%. Besides, the pest or weed control at 200 ppm in the series on Magnaporthe grisea lay within 80 to 100%. Further, the pest or weed control at 200 ppm in series [2] fell in the range of 80 to 100%. Also, the pest or weed control at 200 ppm in the series with Colletotricum lagenarium is 0 to 49%.
`O[C@@H](CNc1ncnc2scc(Cl)c12)c1ccccc1` [Compound 32] yielded a melting point of 111 to 112 °C. The pest or weed control at 200 ppm with Erysiphe cichoracaerum was 0 to 49%. In [1], the pest or weed control at 200 ppm was in the range of 0 to 49%. The pest or weed control at 200 ppm in the series with Phytophthora infestans lay in the range of 0 to 49%. Also, in the series with Leptosphaeria nodorum, the pest or weed control at 200 ppm lay within 0 to 49%. Further, the pest or weed control at 200 ppm in the series with Septoria tritici was 0 to 49%. Further, the pest or weed control at 200 ppm with Cochliobolus sativus fell in the range of 0 to 49%. For the same compound, the pest or weed control at 200 ppm in the series with Magnaporthe grisea is 80 to 100%. Further, the pest or weed control at 200 ppm in [2] is 80 to 100%. The pest or weed control at 200 ppm with Colletotricum lagenarium was 0 to 49%.
With `CC(COc1ccccn1)Nc1ncnc2scc(Cl)c12` (centres unmarked) [Compound 37, 5-(chlorothieno[2,3-d]pyrimidin-4-yl)-[1-methyl-2-(pyridin-2-yloxy)ethyl]amine], the pest or weed control at 200 ppm with Erysiphe cichoracaerum was in the range of 80 to 100%; in [1], 50 to 79%; in the series on Phytophthora infestans it was 0 to 49%; with Leptosphaeria nodorum, 80 to 100%; in the series on Septoria tritici it was 0 to 49%; in the series on Cochliobolus sativus, 0 to 49%. In addition, the pest or weed control at 200 ppm in the series with Magnaporthe grisea was 80 to 100%; in series [2], 80 to 100%; in the series on Colletotricum lagenarium, 0 to 49%.
Turning to `CC(Nc1ncnc2scc(Cl)c12)c1ccc(OCC(F)(F)F)nc1` (centres unmarked) [Compound 38], the pest or weed control at 200 ppm in the series with Erysiphe cichoracaerum lay within 80 to 100%; in series [1], 80 to 100%; in the series with Phytophthora infestans, 80 to 100%; with Leptosphaeria nodorum it was 50 to 79%; in the series with Septoria tritici, 50 to 79%; in the series with Cochliobolus sativus, 0 to 49%. Besides, the pest or weed control at 200 ppm was 80 to 100% in the series on Magnaporthe grisea, 80 to 100% in series [2] and 0 to 49% with Colletotricum lagenarium.
Regarding `CCOc1ccc(C(C)Nc2ncnc3scc(Cl)c23)cn1` (centres unmarked) [Compound 39], the pest or weed control at 200 ppm in the series with Erysiphe cichoracaerum lay within 80 to 100%; in [1] it was 80 to 100%; in the series on Phytophthora infestans, 50 to 79%; with Leptosphaeria nodorum it was 80 to 100%; with Septoria tritici it was 80 to 100%; in the series with Cochliobolus sativus it was 0 to 49%. In addition, the pest or weed control at 200 ppm in the series with Magnaporthe grisea is 80 to 100%; in [2], 80 to 100%; with Colletotricum lagenarium, 0 to 49%.
With `CC(Nc1ncnc2scc(Cl)c12)c1nc2ccccc2s1` (centres unmarked) [Compound 41], the pest or weed control at 200 ppm lay within 80 to 100% with Erysiphe cichoracaerum; 80 to 100% in series [1]; 80 to 100% in the series on Phytophthora infestans; 80 to 100% in the series on Leptosphaeria nodorum; 80 to 100% in the series with Septoria tritici; 50 to 79% with Cochliobolus sativus. In addition, the pest or weed control at 200 ppm was in the range of 80 to 100% in the series with Magnaporthe grisea, 80 to 100% in series [2] and 0 to 49% in the series on Colletotricum lagenarium.
For `CSc1ccc(C(C)Nc2ncnc3scc(Cl)c23)cc1` (centres unmarked) [Compound 42], the pest or weed control at 200 ppm in the series with Erysiphe cichoracaerum is 80 to 100%; in series [1] it was 50 to 79%; in the series with Phytophthora infestans, 0 to 49%; with Leptosphaeria nodorum, 50 to 79%; in the series with Septoria tritici, 80 to 100%; in the series on Cochliobolus sativus, 0 to 49%. The figures for the pest or weed control at 200 ppm (in the series with Magnaporthe grisea; in series [2]; with Colletotricum lagenarium) were 80 to 100%, 80 to 100% and 0 to 49%, respectively.
On to `CC(Nc1ncnc2scc(Cl)c12)c1ccc(C(F)(F)F)nc1` (centres unmarked) [Compound 44], for which the pest or weed control at 200 ppm lay in the range of 80 to 100% in the series on Erysiphe cichoracaerum; 0 to 49% in series [1]; 50 to 79% with Phytophthora infestans; 50 to 79% in the series with Leptosphaeria nodorum; 0 to 49% in the series with Septoria tritici; 50 to 79% in the series with Cochliobolus sativus. Moreover, the pest or weed control at 200 ppm with Magnaporthe grisea was 80 to 100%; in [2] it was 80 to 100%; in the series on Colletotricum lagenarium, 0 to 49%.
Take `COc1ccc(C(C)Nc2ncnc3scc(Br)c23)cn1` (centres unmarked) [Compound 45, (5-Bromothieno[2,3-d]pyrimidin-4-yl)-[1-(2-methoxypyridin-5-yl)ethyl]amine]: the pest or weed control at 200 ppm in the series on Erysiphe cichoracaerum was 80 to 100%; in series [1] it was 80 to 100%; in the series with Phytophthora infestans it was 80 to 100%; in the series on Leptosphaeria nodorum, 50 to 79%; in the series on Septoria tritici it was 50 to 79%; in the series with Cochliobolus sativus, 0 to 49%. The pest or weed control at 200 ppm lay in the range of 80 to 100% in the series on Magnaporthe grisea, 80 to 100% in series [2] and 0 to 49% in the series on Colletotricum lagenarium.
`CCOC(=O)c1sc2ncnc(NC(C)c3ccc(OC)cc3)c2c1O` (centres unmarked) [Compound 52, 5-Hydroxy-4-[1-(4-methoxyphenyl)ethylamino]thieno[2,3-d]pyrimidine-6-carboxylic Acid Ethyl Ester] returned a melting point of 151 to 152 °C. Also, the pest or weed control at 200 ppm with Phytophthora infestans lay in the range of 0 to 49%. Further, the pest or weed control at 200 ppm in the series on Leptosphaeria nodorum lay in the range of 0 to 49%. For the same compound, the pest or weed control at 200 ppm in the series on Septoria tritici lay in the range of 50 to 79%. In the series on Cochliobolus sativus, the pest or weed control at 200 ppm was 0 to 49%. Besides, the pest or weed control at 200 ppm with Magnaporthe grisea was in the range of 0 to 49%. The pest or weed control at 200 ppm in series [2] lay in the range of 0 to 49%. In addition, in the series on Colletotricum lagenarium, the pest or weed control at 200 ppm was in the range of 0 to 49%.
